We go through four molecules from PMC10349142, “Minimal mechanistic component of HbYX-dependent proteasome activation that reverses impairment by neurodegenerative-associated oligomers” (Communications Biology, 2023).

Assay [1] concerns the target T1, Mammalian 20S proteasome (M20S).
T1 construct: gene PSMA5; native 20S core particle purified from bovine liver; alpha7-beta7-beta7-alpha7; with Proteasome subunit beta type-1; Proteasome subunit beta type-2; Proteasome subunit beta type-3; Proteasome subunit beta type-4; Proteasome subunit beta type-5; Proteasome subunit beta type-6; Proteasome subunit beta type-7
The experiment in a line: fluorogenic peptide hydrolysis, activator saturation curve. The class given is biochemical, Bos taurus. The text has this: fluorogenic peptide hydrolysis, activator saturation curve on Mammalian 20S proteasome (M20S)

Assay [2] has as its target T2, T. acidophilum 20S proteasome (T20S) (Thermoplasma acidophilum, UniProt P25156, DEL2-12).
T2 construct: gene psmA; recombinant 20S core particle; 8xHis tag on C-terminus of beta subunit; with Proteasome subunit beta
In words: LFP nonapeptide hydrolysis. The class given is biochemical. The settings on record: 7 nM T20S; LFP substrate; pH 7.5; 45 °C; 2% DMSO.

The target of assay [3] is T3, T. acidophilum 20S proteasome (T20S) (Thermoplasma acidophilum, UniProt P25156, K66A).
T3 construct: gene psmA; recombinant 20S core particle; 8xHis tag on C-terminus of beta subunit; with Proteasome subunit beta
The experiment in a line: LFP nonapeptide hydrolysis. The class given is biochemical. The settings on record: 7 nM T20S; LFP substrate; pH 7.5; 45 °C; 2% DMSO.

In assay [4] the target is T4, T. acidophilum 20S proteasome (T20S) (Thermoplasma acidophilum, UniProt P25156).
T4 construct: gene psmA; recombinant 20S core particle; 8xHis tag on C-terminus of beta subunit; with Proteasome subunit beta
In words: LFP nonapeptide hydrolysis, dose response. Format: biochemical. The settings on record: activation (gate opening); 7 nM T20S; LFP substrate; pH 7.5; 45 °C; 2% DMSO; allosteric, alpha intersubunit pockets.

Assay [5] deals with T1, Mammalian 20S proteasome (M20S). The experiment in a line: fluorogenic peptide hydrolysis, activator saturation curve (Hill fit). The settings on record: activation (gate opening); nLPnLD-AMC substrate; 0.5 nM 20S; pH 7.5; 37 °C; 2% DMSO; allosteric, alpha intersubunit pockets; read-out: Kobs. Format: biochemical, Bos taurus. The text has this:
fluorogenic peptide hydrolysis, activator saturation curve (Hill fit) on Mammalian 20S proteasome (M20S)

Where [6] appears, read: activation; pH 7.5; 37 °C; 2% DMSO; site unknown; read-out: Kobs.

T2 sequence (P25156 other isoform, or with tags, fused parts or gaps DEL2-12): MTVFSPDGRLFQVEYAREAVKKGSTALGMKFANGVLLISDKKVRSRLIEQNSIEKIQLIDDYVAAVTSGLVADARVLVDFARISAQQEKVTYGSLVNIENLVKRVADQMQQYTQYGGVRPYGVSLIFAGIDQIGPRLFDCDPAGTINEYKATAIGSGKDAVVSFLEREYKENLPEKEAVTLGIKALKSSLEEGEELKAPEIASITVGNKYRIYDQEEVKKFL
T2 sequence (P28061 9-211, stated change not applied, further chain): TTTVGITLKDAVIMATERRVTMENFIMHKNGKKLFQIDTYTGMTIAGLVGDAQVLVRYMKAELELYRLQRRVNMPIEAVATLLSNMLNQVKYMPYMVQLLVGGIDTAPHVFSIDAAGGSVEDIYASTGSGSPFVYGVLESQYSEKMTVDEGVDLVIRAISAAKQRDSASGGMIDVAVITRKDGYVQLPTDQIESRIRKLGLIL
T3 sequence (P25156 whole entry K66A): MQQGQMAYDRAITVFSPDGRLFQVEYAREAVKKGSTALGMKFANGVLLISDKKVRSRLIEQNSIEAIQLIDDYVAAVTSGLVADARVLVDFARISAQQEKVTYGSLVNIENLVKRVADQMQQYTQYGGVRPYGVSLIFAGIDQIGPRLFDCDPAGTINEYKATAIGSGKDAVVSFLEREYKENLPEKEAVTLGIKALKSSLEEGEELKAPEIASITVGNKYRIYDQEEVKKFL
T3 sequence (P28061 9-211, further chain): as the sequence (P28061 9-211, stated change not applied, further chain) above
T4 sequence (P28061 9-211, stated change not applied): as the sequence (P28061 9-211, stated change not applied, further chain) above
T4 sequence (P25156 whole entry, stated change not applied): as the sequence (P25156 whole entry K66A) above, with A66K counted along it

With `O=C1NCN(c2ccccc2)C12CCN(CCCC(c1ccc(F)cc1)c1ccc(F)cc1)CC2` [Fluspirilene], the EC50 in assay [1] (setting [6]) was 2.7 µM.

As to `C[C@H](NC(=O)[C@H](Cc1ccc(O)cc1)NC(=O)OCc1ccccc1)C(=O)O` [ZYA], the “no activation at 2.5 mM” value was “ZYA did not stimulate the activity of αΔN-T20S to any extent (Fig. 2e)” in assay [2] and “it could not stimulate gate-opening in T20S-K66A to any extent (Fig. 2d)” in assay [3]. Moreover, in assay [4], the affinity entry is given as “highly similar to its affinity for the T20S (Fig. 2b)”. For the same molecule, the EC50 in assay [5] is 970 µM.

Regarding `CCCCC/C=C\C/C=C\C/C=C\C/C=C\CCCC(=O)Nc1ccc(O)cc1` [AM-404], the EC50 in assay [1] (read-out: Kobs; activation; pH 7.5; 37 °C; 2% DMSO; site unknown) was determined as 12.1 µM.

Regarding `CCOC(=O)[C@]1(c2ccccc2)N=C(c2ccc(OC)cc2)N(Cc2ccccc2)[C@@H]1c1ccc(NCc2ccccc2)cc1` [TCH-165], in assay [1] (setting [6]), the EC50 amounted to 0.8 µM.
